According to publication PMC5247395 (EJNMMI Research, 2017):

Assays:
[1] = n-octanol/PBS distribution coefficient (shake-flask); format: physicochemical; settings: n-octanol/PBS pH 7.4, shake-flask
Procedure: The distribution coefficients (logD values) of the radioligands were determined by a shake-flask method using liquid-liquid extraction followed by phase separation, as previously reported (Additional file 1). In brief, the PSMA ligands were labeled at a specific activity of 5 MBq/nmol. […] The vials were vortexed vigorously for 1 min and then centrifuged for 6 min for phase separation. The concentration of radioactivity in a defined volume of each layer was measured in a γ-counter (Perkin Elmer, Wallac Wizard 1480). The distribution coefficients were expressed as the logarithm of the ratio of counts per minute (cpm) measured in the n-octanol phase to the cpm measure in the PBS phase. The values are reported as the average of at least three independent measurements (± standard deviation, SD), each performed with five replicates. Data were analyzed for significance using a one-way ANOVA test (GraphPad Prism software, version 7). A p value of <0.05 was considered as statistically significant.

[2] = molecular target: T1, PSMA (Homo sapiens, UniProt Q04609); assay: Saturation binding assay on PC-3 PIP cells (PSMA affinity, KD)
T1 construct: expressed in transfected cells; host or cells: PC-3 PIP cells (PSMA-positive subline of human PC-3 prostate cancer cells), provided by Prof; Martin Pomper, Johns Hopkins
T1 sequence (Q04609 whole entry): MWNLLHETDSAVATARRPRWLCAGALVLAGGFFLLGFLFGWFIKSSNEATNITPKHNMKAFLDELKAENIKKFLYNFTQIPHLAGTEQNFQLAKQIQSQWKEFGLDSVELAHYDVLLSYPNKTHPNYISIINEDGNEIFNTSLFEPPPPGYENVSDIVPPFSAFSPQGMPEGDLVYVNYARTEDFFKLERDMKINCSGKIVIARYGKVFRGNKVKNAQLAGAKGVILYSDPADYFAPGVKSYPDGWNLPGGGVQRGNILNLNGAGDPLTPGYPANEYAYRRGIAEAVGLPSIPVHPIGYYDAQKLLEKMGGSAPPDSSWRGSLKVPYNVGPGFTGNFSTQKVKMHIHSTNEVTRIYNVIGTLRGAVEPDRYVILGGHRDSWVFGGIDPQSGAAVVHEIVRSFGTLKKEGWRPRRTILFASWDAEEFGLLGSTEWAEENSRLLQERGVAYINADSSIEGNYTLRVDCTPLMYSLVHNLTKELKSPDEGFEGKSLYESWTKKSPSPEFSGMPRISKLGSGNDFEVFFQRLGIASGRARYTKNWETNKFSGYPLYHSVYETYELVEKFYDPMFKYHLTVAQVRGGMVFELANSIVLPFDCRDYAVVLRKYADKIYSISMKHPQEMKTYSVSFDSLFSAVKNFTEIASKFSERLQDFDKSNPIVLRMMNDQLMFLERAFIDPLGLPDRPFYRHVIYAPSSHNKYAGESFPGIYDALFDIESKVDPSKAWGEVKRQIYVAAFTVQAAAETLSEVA
Procedure: Determination of the PSMA affinity was performed by saturation binding assays using PC-3 PIP cells and different concentrations of ^nat/44Sc-, ^nat/177Lu-, ^nat/68Ga-PSMA-617, or ^nat/68Ga-PSMA-11, respectively (Additional file 1).
Determination of the KD values was performed by saturation binding assays using PSMA^pos PC-3 PIP cells. After successful radiolabeling of the PSMA ligands, a 2.5-fold molar excess of the corresponding cold metal was added and the reaction mixture was incubated for another 10 min at 95 °C. Quality control was performed again after reaction of the radioligands with the “cold” metal as described in the main manuscript.
The cells were seeded in 48-well-plates (8 x 10^5 cells in 500 uL RPMI medium/well) allowing adhesion and growth overnight at 37 °C and 5% CO2. For the entire experiment, the well-plates were kept on ice. After removal of the supernatant, the cells were washed once with ice-cold PBS pH 7.4 prior to the addition of different concentrations (1 nM-2 µM) of either ^nat/44Sc-, ^nat/177Lu-, ^nat/67/68Ga-PSMA-617 or ^nat/67/68Ga-PSMA-11 in ice-cold RPMI medium without supplements. For the determination of non-specific binding, cell samples were incubated with 2-phosphonomethyl pentanedioic acid (2-PMPA, 200 μM). The well-plates were incubated for 30 min at 4 °C. Then, the supernatants were removed and the cells washed twice with ice-cold PBS followed by addition of NaOH (1 M, 600 µL) to each well. The cell suspensions were transferred to 4 mL tubes for measurement in a γ-counter (Wallac Wizard 1480, Perkin Elmer). The KD values were determined by plotting specific-binding (total binding minus unspecific binding) against the molar concentration of the added radioligands followed by nonlinear regression analysis using GraphPad Prism 7 software.

[3] = system: PC-3 PIP/flu tumor-bearing mice; assay: Biodistribution in PC-3 PIP/flu tumor-bearing mice; settings: i.v.; for PC-3 flu Tumor: PSMA^neg xenograft; for PC-3 PIP Tumor: PSMA^pos xenograft
Procedure: In vivo experiments were approved by the local veterinarian department and conducted in accordance with the Swiss law of animal protection. All mice were obtained from Charles River Laboratories (Sulzfeld, Germany), at the age of 5–6 weeks. Female, athymic nude Balb/c mice were subcutaneously inoculated with PC-3 PIP cells (6 × 10^6 cells in 100 μL Hank’s balanced salt solution (HBSS) with Ca^2+/Mg^2+) on the right shoulder and with PC-3 flu cells (5 × 10^6 cells in 100 μL HBSS with Ca^2+/Mg^2+) on the left shoulder 2 weeks before the performance of the experiments.
Mice were sacrificed at different time points post injection (p.i.) of the radioligands. Selected tissues and organs were collected, weighed and measured using a γ-counter. The results were decay-corrected and listed as a percentage of the injected activity per gram of tissue mass (% IA/g).

O=C([O-])CN1CCN(CC(=O)[O-])CCN(CC(=O)NCC2CCC(C(=O)N[C@@H](Cc3ccc4ccccc4c3)C(=O)NCCCC[C@H](NC(=O)N[C@@H](CCC(=O)O)C(=O)O)C(=O)O)CC2)CCN(CC(=O)[O-])CC1.[177Lu+3] (some centres unmarked) [^177Lu-PSMA-617]
LogD values [1]: −4.18 ± 0.06 | Kd ([2]; 30 min at 4 °C, saturation binding): 39 ± 23 nM | Relative PSMA-binding affinity ([2]; inverse molar ratio of average KD values, ^177Lu-PSMA-617 set to 1): 1.0 | Blood ([3]; 15 min p.i.): 7.28 ± 0.32 % IA/g | Bone ([3]; 15 min p.i.): 2.03 ± 0.10 % IA/g | Heart ([3]; 15 min p.i.): 2.87 ± 0.17 % IA/g | Intestines ([3]; 15 min p.i.): 1.64 ± 0.12 % IA/g | Kidneys ([3]; 15 min p.i.): 30.8 ± 4.52 % IA/g | Liver ([3]; 15 min p.i.): 1.63 ± 0.27 % IA/g | Lung ([3]; 15 min p.i.): 4.76 ± 0.55 % IA/g | Muscle ([3]; 15 min p.i.): 1.78 ± 0.21 % IA/g | Salivary glands ([3]; 15 min p.i.): 2.11 ± 0.19 % IA/g | Spleen ([3]; 15 min p.i.): 2.85 ± 0.38 % IA/g | Stomach ([3]; 15 min p.i.): 1.70 ± 0.12 % IA/g | PC-3 flu Tumor ([3]; 15 min p.i.): 2.49 ± 0.45 % IA/g | PC-3 PIP Tumor ([3]; 15 min p.i.): 32.3 ± 3.54 % IA/g | Blood ([3]; 30 min p.i.): 3.05 ± 0.81 % IA/g | Bone ([3]; 30 min p.i.): 1.07 ± 0.27 % IA/g | Heart ([3]; 30 min p.i.): 1.32 ± 0.28 % IA/g | Intestines ([3]; 30 min p.i.): 1.13 ± 0.45 % IA/g | Kidneys ([3]; 30 min p.i.): 22.6 ± 1.78 % IA/g | Liver ([3]; 30 min p.i.): 0.90 ± 0.15 % IA/g | Lung ([3]; 30 min p.i.): 2.51 ± 0.44 % IA/g | Muscle ([3]; 30 min p.i.): 0.75 ± 0.20 % IA/g | Salivary glands ([3]; 30 min p.i.): 1.01 ± 0.27 % IA/g | Spleen ([3]; 30 min p.i.): 1.55 ± 0.05 % IA/g | Stomach ([3]; 30 min p.i.): 0.98 ± 0.35 % IA/g | PC-3 flu Tumor ([3]; 30 min p.i.): 1.22 ± 0.32 % IA/g | PC-3 PIP Tumor ([3]; 30 min p.i.): 47.0 ± 3.52 % IA/g | Bone ([3]; 2 h p.i.): 0.12 ± 0.07 % IA/g | Heart ([3]; 2 h p.i.): 0.06 ± 0.00 % IA/g | Intestines ([3]; 2 h p.i.): 0.14 ± 0.06 % IA/g | Kidneys ([3]; 2 h p.i.): 3.97 ± 0.56 % IA/g | Liver ([3]; 2 h p.i.): 0.13 ± 0.02 % IA/g | Lung ([3]; 2 h p.i.): 0.15 ± 0.03 % IA/g | Muscle ([3]; 2 h p.i.): 0.04 ± 0.02 % IA/g | Salivary glands ([3]; 2 h p.i.): 0.10 ± 0.03 % IA/g | Spleen ([3]; 2 h p.i.): 0.21 ± 0.03 % IA/g | Stomach ([3]; 2 h p.i.): 0.08 ± 0.02 % IA/g | PC-3 flu Tumor ([3]; 2 h p.i.): 0.13 ± 0.01 % IA/g | PC-3 PIP Tumor ([3]; 2 h p.i.): 45.8 ± 4.02 % IA/g | PC-3 flu Tumor ([3]; 4 h p.i.): 0.08 ± 0.01 % IA/g | PC-3 PIP Tumor ([3]; 4 h p.i.): 56.0 ± 8.0 % IA/g | Blood ([3]; 6 h p.i.): 0.02 ± 0.00 % IA/g | Bone ([3]; 6 h p.i.): 0.05 ± 0.01 % IA/g | Heart ([3]; 6 h p.i.): 0.03 ± 0.00 % IA/g | Intestines ([3]; 6 h p.i.): 0.03 ± 0.00 % IA/g | Kidneys ([3]; 6 h p.i.): 2.47 ± 0.28 % IA/g | Liver ([3]; 6 h p.i.): 0.09 ± 0.01 % IA/g | Lung ([3]; 6 h p.i.): 0.06 ± 0.02 % IA/g | Muscle ([3]; 6 h p.i.): 0.02 ± 0.01 % IA/g | Salivary glands ([3]; 6 h p.i.): 0.04 ± 0.00 % IA/g | Spleen ([3]; 6 h p.i.): 0.11 ± 0.01 % IA/g | Stomach ([3]; 6 h p.i.): 0.05 ± 0.01 % IA/g | PC-3 flu Tumor ([3]; 6 h p.i.): 0.06 ± 0.01 % IA/g | PC-3 PIP Tumor ([3]; 6 h p.i.): 55.4 ± 1.67 % IA/g
